# Article PMC3740399, “Carfilzomib in multiple myeloma patients with renal impairment: pharmacokinetics and safety” (Leukemia, 2013)
# Key:
# Format in all cases: in vivo, human
# [1] = Urinary excretion of carfilzomib (LC MS/MS)
# Procedure: Blood for plasma PK analysis was collected on days 1 and 15 of Cycle 1, and on day 15 of Cycle 2, before dosing (t=0), at the end of dosing, and at 5, 15 and 30 min and 1, 1.5, 2, 4, 6 and 24 h after dosing; urine samples were collected cumulatively over 0–5 h and 5–24 h on days 1 and 15 of Cycle 1 following administration of carfilzomib to determine carfilzomib concentrations. Carfilzomib concentrations were determined using validated liquid chromatography tandem mass spectrometry (LC MS/MS) methods with a calibration range of 0.300–300 ng/ml for plasma samples and 4.0–2000 ng/ml for urine samples. Plasma concentration of carfilzomib versus time was plotted on days 1 and 15 in Cycle 1, and PK parameters were calculated using a non-compartmental constant infusion method using WinNonlin (Pharsight, Sunnyvale, CA, USA). To determine whether renal impairment affected the PK of carfilzomib, the relationship between renal function status and relevant PK parameters was evaluated. Statistical comparison (analysis of variance) of the ln-transformed dose-adjusted PK parameters was also performed between patients with normal renal function and each group of patients with renal impairment. For these parameters, 90% confidence intervals (CI) were calculated for the ratios between least squares of the mean (LSM) for each group versus the normal renal function group (Group 1). […]
# [2] = test system: proteasome chymotrypsin-like activity; assay: Proteasome chymotrypsin-like activity in whole blood (RBC) and PBMC, fluorogenic substrate (LLVY-AMC) assay
# Procedure: Proteasome chymotrypsin-like activity was measured in whole-blood (red blood cells, RBC) and isolated peripheral blood mononuclear cell samples using a fluorogenic-based substrate assay as previously described.[15] Blood for PDn analysis was collected before carfilzomib dosing and 1 h after carfilzomib dosing on days 1, 2 and 8 of Cycle 1 and on day 1 of Cycle 2.
# Figure 2 Proteasome inhibition following the first dose of carfilzomib. Proteasome activity was measured in whole-blood and peripheral blood mononuclear cells before and 1 h after the first dose of 15 mg/m^2 carfilzomib on day 1 of Cycle 1 (using LLVY-AMC substrate). Data are presented as mean activity (±s.e.m.) relative to pre-dose values for each group. The number of patient samples for each Group is noted. Group 1, normal renal function; Group 2, mild renal impairment; Group 3, moderate renal impairment; Group 4, severe renal impairment; Group 5, chronic dialysis.
# [3] = Safety: treatment-emergent adverse events (CTCAE Version 3.0); conditions: for Anemia, Grades 3/4 / Decreased hemoglobin, Grades 3/4 / Dyspnea, Grades 3/4 / Fatigue, Grades 3/4 / Hypokalemia, Grades 3/4 / Lymphopenia, Grades 3/4 / Pain, Grades 3/4 / Pneumonia, Grades 3/4 / Thrombocytopenia, Grades 3/4: number of patients
# Procedure: All patients who received at least one dose of carfilzomib were included in the safety population. Incidence, severity and duration of AEs, including all serious AEs and those considered to be treatment related, and shifts to or from abnormal relative to baseline in key laboratory parameters were categorized according to the National Cancer Institute's Common Terminology Criteria for Adverse Events (CTCAE) Version 3.0.[16] […] ECGs were performed in most patients to satisfy regulatory requirements, but were not required by the study protocol.
# [4] = Group 1 (normal renal function), n=12
# [5] = Group 2 (mild impairment), n=12
# [6] = Group 3 (moderate impairment), n=10
# [7] = Group 4 (severe impairment), n=8
# [8] = Group 5 (chronic dialysis), n=8
smiles,measurement,setting,value
CC(C)C[C@H](NC(=O)[C@H](CCc1ccccc1)NC(=O)CN1CCOCC1)C(=O)N[C@@H](Cc1ccccc1)C(=O)N[C@@H](CC(C)C)C(=O)[C@@]1(C)CO1 [carfilzomib],"total amount of carfilzomib recovered in the urine, of the administered dose","[1]; all groups, Days 1 and 15 of Cycle 1, within 24 h post-dosing",less than 1%
same,mean total concentration of carfilzomib in urine,"[1]; group with normal renal function, day 1 of Cycle 1, 15 mg/m^2 IV, post-dose urine collection, LC MS/MS",0.157 mg
same,inhibition of proteasome CT-L activity from pre-dose levels,"[2]; RBCs and peripheral blood mononuclear cells, one hour after the first dose, 15 mg/m^2, range across groups",73–87%
same,recovery of proteasome CT-L activity in RBCs,"[2]; by the start of Cycle 2, cumulative inhibition during first treatment cycle",little to no recovery
same,recovery of proteasome activity in peripheral blood mononuclear cells,[2]; day 8 (5 days after the most recent dose) and beginning of Cycle 2 (12 days after dosing),complete or near to complete
same,"Anemia, Grades 3/4",[3]; [4],2
same,"Decreased hemoglobin, Grades 3/4",[3]; [4],1
same,"Dyspnea, Grades 3/4",[3]; [4],0
same,"Fatigue, Grades 3/4",[3]; [4],2
same,"Hypokalemia, Grades 3/4",[3]; [4],1
same,"Lymphopenia, Grades 3/4",[3]; [4],2
same,"Pain, Grades 3/4",[3]; [4],0
same,"Pneumonia, Grades 3/4",[3]; [4],1
same,"Thrombocytopenia, Grades 3/4",[3]; [4],1
same,"Anemia, Grades 3/4",[3]; [5],4
same,"Decreased hemoglobin, Grades 3/4",[3]; [5],0
same,"Dyspnea, Grades 3/4",[3]; [5],0
same,"Fatigue, Grades 3/4",[3]; [5],1
same,"Hypokalemia, Grades 3/4",[3]; [5],1
same,"Lymphopenia, Grades 3/4",[3]; [5],3
same,"Pain, Grades 3/4",[3]; [5],2
same,"Pneumonia, Grades 3/4",[3]; [5],1
same,"Thrombocytopenia, Grades 3/4",[3]; [5],5
same,"Anemia, Grades 3/4",[3]; [6],5
same,"Decreased hemoglobin, Grades 3/4",[3]; [6],1
same,"Dyspnea, Grades 3/4",[3]; [6],2
same,"Fatigue, Grades 3/4",[3]; [6],2
same,"Hypokalemia, Grades 3/4",[3]; [6],0
same,"Lymphopenia, Grades 3/4",[3]; [6],1
same,"Pain, Grades 3/4",[3]; [6],3
same,"Pneumonia, Grades 3/4",[3]; [6],3
same,"Thrombocytopenia, Grades 3/4",[3]; [6],3
same,"Anemia, Grades 3/4",[3]; [7],2
same,"Decreased hemoglobin, Grades 3/4",[3]; [7],1
same,"Dyspnea, Grades 3/4",[3]; [7],1
same,"Fatigue, Grades 3/4",[3]; [7],1
same,"Hypokalemia, Grades 3/4",[3]; [7],1
same,"Lymphopenia, Grades 3/4",[3]; [7],2
same,"Pain, Grades 3/4",[3]; [7],0
same,"Pneumonia, Grades 3/4",[3]; [7],1
same,"Thrombocytopenia, Grades 3/4",[3]; [7],1
same,"Anemia, Grades 3/4",[3]; [8],1
same,"Decreased hemoglobin, Grades 3/4",[3]; [8],1
same,"Dyspnea, Grades 3/4",[3]; [8],1
same,"Fatigue, Grades 3/4",[3]; [8],1
same,"Hypokalemia, Grades 3/4",[3]; [8],1
same,"Lymphopenia, Grades 3/4",[3]; [8],1
same,"Pain, Grades 3/4",[3]; [8],0
same,"Pneumonia, Grades 3/4",[3]; [8],0
same,"Thrombocytopenia, Grades 3/4",[3]; [8],0
same,"Grade 3/4 anemia, incidence","[3]; all patients, n=50",28.0%
same,"Grade 3/4 fatigue, incidence","[3]; all patients, n=50",14.0%
same,"Grade 3/4 lymphopenia, incidence","[3]; all patients, n=50",18.0%
same,"Grade 3/4 thrombocytopenia, incidence","[3]; all patients, n=50",20.0%
same,AEs leading to dose reduction,[3]; in vivo,18.0%
same,Clinical congestive heart failure,[3]; in vivo,four
same,Grade 3 neuropathy during the study,[3]; in vivo,2.0%
same,Serious AE acute renal failure,[3]; in vivo,6.0%
same,Serious AE congestive heart failure,[3]; in vivo,6.0%
same,Serious AE dehydration,[3]; in vivo,6.0%
same,Serious AE pneumonia,[3]; in vivo,16.0%
same,"Serious AEs, patients",[3]; in vivo,66.0%
same,"anemia of any grade, incidence",[3]; in vivo,50.0%
same,"diarrhea of any grade, incidence",[3]; in vivo,36.0%
same,elevations in serum creatinine from Grade ⩽2 at baseline to Grade 3 at any point after beginning treatment,[3]; in vivo,Five
same,"fatigue of any grade, incidence",[3]; in vivo,56.0%
same,incidence of treatment-emergent or worsening neuropathy of any grade,[3]; in vivo,12.0%
same,"nausea of any grade, incidence",[3]; in vivo,36.0%
same,patients with at least one treatment-emergent AE,[3]; in vivo,94.0%
same,worsening of renal function to Grade 3,[3]; in vivo,12.0%
same,Grade 3/4 infection: respiratory tract infection,[3]; n=2 of 50,4.0%
same,Grade 3/4 infection: sepsis,[3]; n=2 of 50,4.0%
same,Grade 3/4 infection: influenza,[3]; n=3 of 50,6.0%
same,Grade 3/4 infection: bacterial pneumonia,[3]; n=6 of 50,12.0%
same,deaths on study or within 30 days of discontinuation of treatment,"[3]; n=50, all attributed primarily to disease progression",five
